Laboratory results from US20260273059A1, “METHODS OF EVADING IMMUNE REJECTION” (William Marsh Rice University, priority 2023, published 2026).

Tested on: cytokine producing, kill switch inducible cell line
Experiment: Small molecule inducible kill switch
Assay type: cell-based
Details: 100 nM
From the text: Cell engineering for cells equipped with a small molecule inducible kill switch consist of a base epithelial cell line and a highly modular PiggyBAC transposon system. This vector system is composed of a strong promotor that is constitutively expressed, a kozak translation initiation sequence, the gene of interest (any cytokine, chemokine, or other protein), an internal ribosome entry site, a kill switch gene, a puromycin resistance gene and a poly-A tail in between two inverted terminal repeat sequences. Variation to this system requires only gene of interest swapping and allows for quick and easy “plug and play” cell engineering. The kill switch can be added to enhance the safety of cells engineered to produce the following cytokines: IL-1, IL-1a, IL-1b, IL-1RA, IL-2, IL-4, IL-5, IL-6, IL-7, IL-8, IL-9, IL-10, IL-11, IL-12, IL-12a, IL-12b, IL-13, IL-14, IL-15, IL-16, IL-17, IL-20, IFN-α, IFN-b, IFN-c, TNF-α, TNF-b, TGF-b, CCL-1, CCL-2, CCL-3, CCL-4, CCL-5, CCL-6, CCL-7, CCL-8, CCL-9, CCL-10, CCL-11, CCL-12, CCL-13, CCL-14, CCL-15, CCL-16, CCL-18, CCL-19, CCL-20, CCL-21, CCL-22, CCL-23, CCL-24, CCL-25, CCL-26, CCL-27, CCL-28, CXCL1, CXCL2, CXCL3, CXCL4, CXCL5, CXCL6, CXCL7, CXCL8, CXCL9, CXCL10, CXCL11, CXCL12, CXCL13, CXCL14, CXCL15, CXCL16, CXCL17. […]

For CC[C@H](C(=O)N1CCCC[C@H]1C(=O)O[C@H](CCc1ccc(OC)c(OC)c1)c1cccc(OCC(=O)NCCNC(=O)COc2cccc([C@@H](CCc3ccc(OC)c(OC)c3)OC(=O)[C@@H]3CCCCN3C(=O)[C@@H](CC)c3cc(OC)c(OC)c(OC)c3)c2)c1)c1cc(OC)c(OC)c(OC)c1 [AP1903, rimiducid], the “time in which the kill switch inducible cell line responds” value was “less than 24 hours”.
